# Results published in paper PMC9182199, “Borylated 2,3,4,5-Tetrachlorophthalimide and Their 2,3,4,5-Tetrachlorobenzamide Analogues: Synthesis, Their Glycosidase Inhibition and Anticancer Properties in View to Boron Neutron Capture Therapy” (Molecules, 2022).
# Read-outs that look alike come from different tables or passages of the source.
# What was measured:
# MCF-7 = test: MTT cell growth inhibition: MCF-7; assay type: cell-based; conditions: MCF-7 breast carcinoma; for inhibition at 25 µM / GI50: Homo sapiens; for inhibition at 25 µM: MCF7, read-out: Percentage (%) Cell Growth Inhibition in response to 25 µM of Drug; for GI50: MCF7, read-out: GI50 = Concentration (µM) that inhibits cell growth by 50%, dose response
# Protocol: (§1) All test agents were prepared as stock solutions (20 mM) in dimethyl sulfoxide (DMSO) and stored at −20 °C. Cell lines used in the study included HT29 (colorectal carcinoma); U87, SJ-G2, (glioblastoma); MCF-7, (breast carcinoma); A2780 (ovarian carcinoma); H460 (lung carcinoma); A431 (skin carcinoma); Du145 (prostate carcinoma); BE2-C (neuroblastoma); MiaPaCa-2 (pancreatic carcinoma); and SMA560 (spontaneous murine astrocytoma), together with the one non-tumour-derived normal breast cell line (MCF10A). All cell lines were incubated in a humidified atmosphere 5% CO2 at 37 °C. The cancer cell lines were maintained in Dulbecco’s modified Eagle’s medium (DMEM; Sigma, Australia) supplemented with foetal bovine serum (10%), sodium pyruvate (10 mM), penicillin (100 IUmL^−1), streptomycin (100 µg mL^−1) and L-glutamine (2 mM).
# (§2) Growth inhibition was determined by plating cells in duplicate in medium (100 µL) at a density of 2500–4000 cells per well in 96-well plates. On day 0 (24 h after plating), when the cells were in logarithmic growth, medium (100 µL) with or without the test agent was added to each well. After 72 h drug exposure, growth inhibitory effects were evaluated using the MTT (3-(4,5-dimethyltiazol-2-yl)-2,5-diphenyltetrazolium bromide) assay and absorbance read at 540 nm. The percentage growth inhibition was calculated at a fixed concentration of 25 µM, based on the difference between the optical density values on day 0 and those at the end of drug exposure. Each data point is the mean ± the standard error of the mean (SEM) calculated from three replicates which were performed on separate occasions and separate cell line passages.
# [1] = test system: rat intestinal maltase α-glucosidase; test: Glycosidase inhibition, laboratory 1: rat intestinal maltase; assay type: biochemical; conditions: methanol; for inhibition % at 100 μM / inhibition % at 10 μM: rat intestinal maltase
# From the text: (§3) The enzymes α-glucosidase (from yeast), β-glucosidases (from almond and bovine liver), α-galactosidase (from coffee beans), β-galactosidase (from bovine liver), α-mannosidase (from Jack bean), β-mannosidase (from snail), α-L-rhamnosidase (from Penicillium decumbens), α-L-fucosidase (from bovine kidney), trehalase (from porcine kidney), β-glucuronidases (from E. coli and bovine liver), amyloglucosidase (from A. niger), para-nitrophenyl glycosides, and various disaccharides were purchased from Sigma-Aldrich Co (St Louis, MO, USA).
# (§4) Brush border membranes were prepared from the rat small intestine according to the method of Kessler et al. and were assayed at pH 6.8 for rat intestinal maltase using maltose. For rat intestinal maltase, porcine kidney trehalase, and A. niger amyloglucosidase activities, the reaction mixture contained 25 mM maltose and the appropriate amount of enzyme, and the incubations were performed for 10–30 min at 37 °C. The reaction was stopped by heating at 100 °C for 3 min. After centrifugation (600× g; 10 min), the resulting reaction mixture was added to the Glucose CII-test Wako (Wako Pure Chemical Ind., Osaka, Japan). The absorbance at 505 nm was measured to determine the amount of the released D-glucose. Other glycosidase activities were determined using an appropriate para-nitrophenyl glycoside as substrate at the optimum pH of each enzyme. The reaction mixture contained 2 mM of the substrate and the appropriate amount of enzyme. The reaction was stopped by addition of 400 mM Na2CO3. The released para-nitrophenol was measured spectrometrically at 400 nm. All reactions run in methanol.
# Du145 = test: MTT cell growth inhibition: Du145; assay type: cell-based; conditions: 72 h; for inhibition at 25 µM: Homo sapiens, DU-145, Du145 prostate carcinoma, read-out: Percentage (%) Cell Growth Inhibition in response to 25 µM of Drug
# Protocol: as §1, §2
# snail β-mannosidase = test: Glycosidase inhibition, laboratory 1: snail β-mannosidase; assay type: biochemical; conditions: methanol
# From the text: as §3, §4
# [2] = test system: bovine liver β-glucuronidase; test: Glycosidase inhibition, laboratory 1: bovine liver β-glucuronidase; assay type: biochemical; conditions: methanol
# From the text: as §3, §4
# H460 = test: MTT cell growth inhibition: H460; assay type: cell-based; conditions: H460 lung carcinoma; for inhibition at 25 µM / GI50: Homo sapiens; for inhibition at 25 µM: NCI-H460, read-out: Percentage (%) Cell Growth Inhibition in response to 25 µM of Drug; for GI50: NCI-H460, read-out: GI50 = Concentration (µM) that inhibits cell growth by 50%, dose response
# Protocol: as §1, §2
# A2780 = test: MTT cell growth inhibition: A2780; assay type: cell-based; conditions: A2780 ovarian carcinoma; for inhibition at 25 µM / GI50: Homo sapiens; for inhibition at 25 µM: read-out: Percentage (%) Cell Growth Inhibition in response to 25 µM of Drug; for GI50: read-out: GI50 = Concentration (µM) that inhibits cell growth by 50%, dose response
# Protocol: as §1, §2
# A431 = test: MTT cell growth inhibition: A431; assay type: cell-based; conditions: A431 skin carcinoma; for inhibition at 25 µM / GI50: Homo sapiens; for inhibition at 25 µM: A-431, read-out: Percentage (%) Cell Growth Inhibition in response to 25 µM of Drug; for GI50: A-431, read-out: GI50 = Concentration (µM) that inhibits cell growth by 50%, dose response
# Protocol: as §1, §2
# SJ-G2 = test: MTT cell growth inhibition: SJ-G2; assay type: cell-based; conditions: SJ-G2 glioblastoma, 72 h; for inhibition at 25 µM: read-out: Percentage (%) Cell Growth Inhibition in response to 25 µM of Drug
# Protocol: as §1, §2
# almond β-glucosidase = test: Glycosidase inhibition, laboratory 1: almond β-glucosidase; assay type: biochemical; conditions: methanol
# From the text: as §3, §4
# [3] = Appearance of the 1 mg/mL aqueous solution tested; assay type: physicochemical; conditions: 1 mg/mL in water
# MCF10A = test: MTT cell growth inhibition: MCF10A normal breast; assay type: cell-based; conditions: 72 h; for inhibition at 25 µM: Homo sapiens, MCF-10A, read-out: Percentage (%) Cell Growth Inhibition in response to 25 µM of Drug
# Protocol: as §1
# The non-cancer MCF10A cell line was maintained in DMEM:F12 (1:1) cell culture media, 5% heat-inactivated horse serum, supplemented with penicillin (50 IUmL^−1), streptomycin (50 µg mL^−1), HEPES (20 mM), L-glutamine (2 mM), epidermal growth factor (20 ng mL^−1), hydrocortisone (500 ng mL^−1), cholera toxin (100 ng mL^−1) and insulin ([…]).
# as §2
# [4] = biological target: T1, coffee beans α-galactosidase (Coffea arabica, UniProt Q42656); test: Glycosidase inhibition, laboratory 1: coffee beans α-galactosidase; assay type: biochemical; conditions: methanol
# T1 construct: purchased Sigma-Aldrich Co
# From the text: as §3, §4
# [5] = biological target: T2, A. niger amyloglucosidase (Aspergillus niger, UniProt P69328); test: Glycosidase inhibition, laboratory 1: amyloglucosidase; assay type: biochemical; conditions: for inhibition at 10 µM: read-out: inhibition % at 10 μM
# T2 construct: purchased Sigma-Aldrich Co
# From the text: as §3, §4
# T1 sequence (Q42656 16-378): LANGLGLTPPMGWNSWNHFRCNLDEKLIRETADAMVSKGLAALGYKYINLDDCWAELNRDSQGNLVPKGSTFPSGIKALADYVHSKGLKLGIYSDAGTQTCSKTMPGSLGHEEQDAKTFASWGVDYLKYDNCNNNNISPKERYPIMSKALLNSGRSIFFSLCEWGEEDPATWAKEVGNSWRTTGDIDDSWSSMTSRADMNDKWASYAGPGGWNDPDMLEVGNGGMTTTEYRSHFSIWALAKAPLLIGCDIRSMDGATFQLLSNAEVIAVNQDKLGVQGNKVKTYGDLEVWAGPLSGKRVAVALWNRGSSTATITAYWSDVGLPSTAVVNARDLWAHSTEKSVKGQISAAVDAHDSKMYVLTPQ
# T2 sequence (P69328 25-640): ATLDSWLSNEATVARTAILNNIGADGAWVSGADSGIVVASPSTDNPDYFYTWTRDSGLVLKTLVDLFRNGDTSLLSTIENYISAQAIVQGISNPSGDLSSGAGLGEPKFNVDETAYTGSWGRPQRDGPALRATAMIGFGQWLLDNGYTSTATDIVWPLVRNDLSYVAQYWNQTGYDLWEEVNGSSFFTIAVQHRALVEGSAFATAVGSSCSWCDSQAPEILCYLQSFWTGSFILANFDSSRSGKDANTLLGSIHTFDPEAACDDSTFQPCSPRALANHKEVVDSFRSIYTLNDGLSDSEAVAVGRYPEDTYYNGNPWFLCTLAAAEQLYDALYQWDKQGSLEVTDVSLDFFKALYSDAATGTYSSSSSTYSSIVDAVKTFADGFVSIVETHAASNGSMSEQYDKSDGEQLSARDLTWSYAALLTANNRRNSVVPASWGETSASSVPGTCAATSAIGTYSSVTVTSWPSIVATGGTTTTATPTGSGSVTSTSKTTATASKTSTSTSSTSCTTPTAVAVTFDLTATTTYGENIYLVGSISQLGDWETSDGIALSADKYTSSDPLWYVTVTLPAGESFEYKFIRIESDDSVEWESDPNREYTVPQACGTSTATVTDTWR
smiles,measurement,setting,value
"N[C@@H](Cc1ccc(B(O)O)cc1)C(=O)O [BPA, 4-borono-L-phenylalanine, reference compound]",inhibition at 25 µM,"MCF-7; 25 µM, 72 h, MTT",< 0%
same,inhibition % at 100 μM,[1],^cNI ^d(0%)
same,inhibition at 25 µM,Du145,19 ± 10%
same,inhibition % at 100 μM,snail β-mannosidase,^cNI ^d (2.1%)
same,inhibition % at 100 μM,[2],^cNI ^d (7.4%)
same,inhibition at 25 µM,"H460; 25 µM, 72 h, MTT",7 ± 8%
same,inhibition at 25 µM,"A2780; 25 µM, 72 h, MTT",4 ± 1%
same,inhibition at 25 µM,"A431; 25 µM, 72 h, MTT",4 ± 6%
same,inhibition at 25 µM,SJ-G2,5 ± 8%
same,inhibition % at 100 μM,almond β-glucosidase,^cNI ^d (0%)
same,Appearance of the 1 mg/mL Aqueous Solution Tested,[3],some in solution with undissolved sediment
same,inhibition at 25 µM,MCF10A,4 ± 1%
"N[C@@H](Cc1ccc(B(O)O)cc1)C(=O)O [^10B-BPA, reference compound]",Percentage (%) Cell Growth Inhibition in response to 25 µM of Drug,"MCF-7; 25 µM, 72 h, MTT",1 ± 3%
same,inhibition % at 100 μM,[1],^cNI ^d (0%)
same,inhibition % at 100 μM,[4]; 100 μM,^cNI ^d (1.2%)
same,Percentage (%) Cell Growth Inhibition in response to 25 µM of Drug,Du145; Du145 prostate carcinoma,15 ± 9%
same,inhibition % at 100 μM,snail β-mannosidase,^cNI ^d (0.3%)
same,inhibition % at 100 μM,[2],^cNI ^d (0%)
same,Percentage (%) Cell Growth Inhibition in response to 25 µM of Drug,"H460; 25 µM, 72 h, MTT",8 ± 5%
same,Percentage (%) Cell Growth Inhibition in response to 25 µM of Drug,"A2780; 25 µM, 72 h, MTT",8 ± 4%
same,Percentage (%) Cell Growth Inhibition in response to 25 µM of Drug,"A431; 25 µM, 72 h, MTT",4 ± 4%
same,inhibition % at 100 μM,"[5]; A. niger amyloglucosidase, 100 μM, methanol",^cNI ^d (0%)
same,Percentage (%) Cell Growth Inhibition in response to 25 µM of Drug,SJ-G2,5 ± 10%
same,inhibition % at 100 μM,almond β-glucosidase,^cNI ^d (0%)
same,Appearance of the 1 mg/mL Aqueous Solution Tested,[3],some in solution with undissolved sediment
same,Percentage (%) Cell Growth Inhibition in response to 25 µM of Drug,"MCF10A; MCF10A breast (normal), 25 µM, MTT",<0%
"CC1(C)OB(c2cccc(CN3C(=O)c4c(Cl)c(Cl)c(Cl)c(Cl)c4C3=O)c2)OC1(C)C [meta 3, 4,5,6,7-Tetrachloro-2-(3-(4,4,5,5-tetramethyl-1,3,2-dioxaborolan-2-yl)benzyl)isoindoline-1,3-dione]",GI50,MCF-7,23 ± 3.7 µM
same,inhibition at 25 µM,"MCF-7; 25 µM, 72 h, MTT",67 ± 7%
same,inhibition % at 10 μM,[1],^cNI ^d (22.1%)
same,inhibition at 10 µM,[4],3.5%
same,inhibition at 25 µM,Du145,43 ± 13%
same,inhibition % at 10 μM,snail β-mannosidase,^cNI ^d (1.1%)
same,inhibition % at 10 μM,[2],^cNI ^d (5.7%)
same,GI50,H460,33 ± 2.3 µM
same,inhibition at 25 µM,"H460; 25 µM, 72 h, MTT",42 ± 6%
same,GI50,A2780,19 ± 0.33 µM
same,inhibition at 25 µM,"A2780; 25 µM, 72 h, MTT",70 ± 2%
same,GI50,A431,28 ± 0.85 µM
same,inhibition at 25 µM,"A431; 25 µM, 72 h, MTT",48 ± 3%
same,inhibition at 10 µM,[5],3.2%
same,inhibition at 25 µM,SJ-G2,35 ± 4%
same,inhibition % at 10 μM,almond β-glucosidase,^cNI ^d (5.0%)
same,Appearance of the 1 mg/mL Aqueous Solution Tested,[3],opaque suspension
same,inhibition at 25 µM,MCF10A,69 ± 7%
"CC1(C)OB(c2cccc(NC(=O)c3cc(Cl)c(Cl)c(Cl)c3Cl)c2)OC1(C)C [meta 5, 2,3,4,5-tetrachloro-N-(3-(4,4,5,5-tetramethyl-1,3,2-dioxaborolan-2-yl)phenyl)benzamide]",inhibition at 25 µM,"MCF-7; 25 µM, 72 h, MTT",16 ± 4%
same,IC50,[1]; rat intestinal maltase α-glucosidase,274 µM
same,inhibition at 100 µM,[4]; 100 μM,30.2%
same,inhibition at 25 µM,Du145,< 0%
same,inhibition % at 100 μM,snail β-mannosidase,^aNI ^b (39.1%)
same,inhibition % at 100 μM,[2],^aNI ^b (6.0%)
same,inhibition at 25 µM,"H460; 25 µM, 72 h, MTT",18 ± 6%
same,inhibition at 25 µM,"A2780; 25 µM, 72 h, MTT",49 ± 4%
same,inhibition at 25 µM,"A431; 25 µM, 72 h, MTT",9 ± 9%
same,inhibition at 100 µM,"[5]; A. niger amyloglucosidase, 100 μM, methanol, read-out: inhibition % at 100 μM",2.8%
same,inhibition at 25 µM,SJ-G2,< 0%
same,inhibition % at 100 μM,almond β-glucosidase,^aNI ^b (30.2%)
same,Appearance of the 1 mg/mL Aqueous Solution Tested,[3],some in solution with undissolved sediment
same,inhibition at 25 µM,MCF10A,< 0%
"CC1(C)OB(c2ccccc2NC(=O)c2cc(Cl)c(Cl)c(Cl)c2Cl)OC1(C)C [ortho 5, 2,3,4,5-Tetrachloro-N-(2-(4,4,5,5-tetramethyl-1,3,2-dioxaborolan-2-yl)phenyl)benzamide]",GI50,MCF-7,12 ± 1.2 µM
same,inhibition at 25 µM,"MCF-7; 25 µM, 72 h, MTT",> 100%
same,inhibition % at 10 μM,[1],^cNI ^d(3%)
same,inhibition at 10 µM,[4],0%
same,inhibition at 25 µM,Du145,> 100%
same,inhibition % at 10 μM,snail β-mannosidase,^cNI ^d (0%)
same,inhibition % at 10 μM,[2],^cNI ^d (0%)
same,GI50,H460,13 ± 1 µM
same,inhibition at 25 µM,"H460; 25 µM, 72 h, MTT",> 100%
same,GI50,A2780,16 ± 1.2 µM
same,inhibition at 25 µM,"A2780; 25 µM, 72 h, MTT",97 ± 2%
same,GI50,A431,11 ± 1.8 µM
same,inhibition at 25 µM,"A431; 25 µM, 72 h, MTT",100 ± 2%
same,inhibition at 10 µM,"[5]; A. niger amyloglucosidase, 10 μM, methanol",0%
same,inhibition at 25 µM,SJ-G2,92 ± 5%
same,inhibition % at 10 μM,almond β-glucosidase,^cNI ^d (11.6%)
same,Appearance of the 1 mg/mL Aqueous Solution Tested,[3],some in solution with undissolved sediment
same,inhibition at 25 µM,MCF10A,58 ± 9%
